Key:
B6 wild type mice = conditions: previously reported; cited from earlier work
[1] = test system: human naïve Vα24+ iNKT cells; test: Expansion of human iNKT cells; assay type: cell-based; conditions: 100 ng/ml; counted on day 9
Description: Human naïve Vα24^+ iNKT cells were cultured with autologous immature CD14^+ DCs pulsed with the indicated glycolipid at 100 ng/ml or DMSO on day 2 for 18 h. On day 3, the suspension cells were transferred to a new dish, cultured in the presence of 50 U/ml IL-2 (R & D Systems), and replenished with fresh medium every 3 days. The percentage of Vα24^+/Vβ11^+ cells was determined by flow cytometry on day 9. The total cell number after expansion was calculated with the Guava ViaCount reagent (Millipore, USA) and detected by the Guava system with CytoSoft™ software containing the ViaCount module (Millipore, USA).
As described above, glycolipid analogs with αGal were stronger immune modulators than those with αGlc in mice, especially for the comparison between 7DW8-5 and 7DW8-5-Glc. To investigate if similar trends also applied to human iNKT cells, Vα24^+ iNKT cells isolated from the peripheral blood were incubated with immature DCs pulsed with the indicated glycolipid at 100 ng/ml on day 2. After antigen removal on day 3, human iNKT cells were cultured in the presence of IL-2. The number of expanded iNKT cells was counted using the Guava ViaCount reagent on day 9.

[2] = test system: Murine DN3A4-1.2 Vα14 iNKT hybridoma cells; test: mCD1d vs. hCD1d swapping assay, murine iNKT cells; assay type: cell-based, mouse; conditions: presented by mCD1d or hCD1d; 1, 0.1, 0.01 μg/ml
Description: (§1) (4A) Murine DN3A4-1.2 Vα14+ iNKT hybridoma cells or (4B) C1-expanded Vα24^+ iNKT cells were pulsed with the indicated glycolipid presented by either mCD1d (A20-CD1d cells) or hCD1d (HeLa-CD1d cells) at 1, 0.1, and 0.01 μg/ml. After 18 hr, the supernatants were harvested to measure IL-2 secretion by an ELISA assay (4A) or using Beadlyte® Human Cytokine kit and Luminex® 200™ reading system (4B). Assays were performed in triplicates. 8-5 was the abbreviation of 7DW8-5.
(§2) Murine DN3A4-1.2 Vα14 iNKT hybridoma cells or C1-expanded Vα24^+ iNKT cells were pulsed with the indicated glycolipid antigen presented either by mCD1d (A20-CD1d cells) or hCD1d (HeLa-CD1d cells) at 1, 0.1, and 0.01 μg/ml. After 18 hr, the supernatants were harvested for the measurement of cytokine secretion(s). IL-2 released from Vα14^+ iNKT cells was determined by ELISA assay. IFN-γ, IL-4 and IL-2 secreted from Vα24^+ iNKT cells were detected using Beadlyte® Human Cytokine kit (Millipore, N.Y., USA) and Luminex® 200™ reading system.
To explain the species-specific responses, we examined the effects of swapping human vs. mouse CD1d molecules against human vs. murine iNKT cells on the stimulatory activities of GSLs with different glycosyl groups. […]

[3] = test system: C1-expanded Vα24+ iNKT cells; test: mCD1d vs. hCD1d swapping assay, human iNKT cells; assay type: cell-based; conditions: presented by mCD1d or hCD1d; 1, 0.1, 0.01 μg/ml
Description: as §1
C1-expanded Vα24^+ iNKT cells were pulsed with the indicated glycolipid antigen presented by either mCD1d (A20-CD1d cells) or hCD1d (HeLa-CD1d cells) at 1, 0.1, and 0.01 μg/ml. After 18 hr, the supernatants were harvested for the measurement of IFN-γ (12A) and IL-4 (12B) secretions. (12C) The ratio of IFN-γ over IL-4 was calculated at different concentrations of glycolipids. […]
as §2, with “After 18 hr, the supernatants were harvested for the measurement of cytokine secretion(s).” left out, “system. […]” for “system.”

For `CCCCCCCCCCCCCC[C@@H](O)[C@@H](O)[C@H](CO[C@H]1O[C@H](CO)[C@H](O)[C@H](O)[C@H]1O)NC(=O)CCCCCCCCCCc1ccc(F)cc1` [Compound 7DW8-5, reference compound], the “dose sufficient for immune stimulation” value (B6 wild type mice) is listed as 0.1 μg/mouse.

With `CC[C@@H](O)[C@@H](O)[C@H](CO[C@H]1OC(CO)[C@@H](O)C(O)C1O)NC(=O)Cc1ccc(F)cc1` (stereo partly shown) [Compound 7DW8-5-Glc] the “expansion of human iNKT cells in vitro compared with 7DW8-5” value [1] was “significantly (p=0.0009) better”.

In the case of `CCCCCCCCCCCCCC[C@@H](O)[C@@H](O)[C@H](CO[C@H]1O[C@H](CO)[C@@H](O)[C@H](O)[C@@H]1O)NC(=O)CCCCCCCCCCc1ccc(F)cc1` [Compound 7DW8-5-Man], the “cytokine (IL-2) secretion from murine iNKT cells” value [2] is reported as “could not stimulate” and the “cytokine secretion (IL-2, IFN-γ, IL-4) from human iNKT cells” value [3] is reported as “could not stimulate”.

Reference: patent publication US10533034B2, “Human iNKT cell activation using glycolipids” (ACADEMIA SINICA, priority 2014, dated 2020)
